Consider one compound from patent publication US12325710B2, “Substituted 1,2,3,4,5,6-hexahydroazepino[4,5-b]indoles for treating brain disorders” (priority 2019, dated 2025).

Entries after “also recorded” stand apart in the source; their conditions may differ.

The test system of data set [1] is mouse primary sensory cortex. The data set can be described thus: In vivo spine dynamics, transcranial 2-photon imaging. The settings on record: 24 h after i.p. dose; TBG 50 mg/kg, DOI 10 mg/kg. The procedure: In Vivo Spine Dynamics. Male and female Thy1-GFP-M line mice (n=5 per condition) were purchased from The Jackson Laboratory (JAX #007788) and maintained in UCSC animal facilities according to an IACUC approved protocol. In vivo transcranial two-photon imaging and data analysis were performed as previously described. Briefly, mice were anesthetized with an intraperitoneal (i.p.) injection of a mixture of ketamine (87 mg/kg) and xylazine (8.7 mg/kg). A small region of the exposed skull was manually thinned down to 20-30 μm for optical access. Spines on apical dendrites in mouse primary sensory cortices were imaged using a Bruker Ultima IV two-photon microscope equipped with an Olympus water-immersion objective (40×, NA=0.8) and a Ti:Sapphire laser (Spectra-Physics Mai-Tai, excitation wavelength 920 nm). Images were taken at a zoom of 4.0 (pixel size 0.143×0.143 μm) and Z-step size of 0.7 μm. The mice received an i.p. injection (injection volume=5 mL/kg) of DOI (10 mg/kg) or TBG (50 mg/kg) immediately after they recovered from anesthesia given prior to the first imaging session. The animals were re-imaged 24 h after drug administration. Dendritic spine dynamics were analyzed using ImageJ. Spine formation and elimination were quantified as percentages of spine number on day 0.

A further data set has as its target T1, 5-HT1A (Homo sapiens, UniProt P08908).
T1 construct: expressed in transfected cells; host or cells: HEKT cells (GloSensor cAMP assay)
T1 sequence (P08908 1-422): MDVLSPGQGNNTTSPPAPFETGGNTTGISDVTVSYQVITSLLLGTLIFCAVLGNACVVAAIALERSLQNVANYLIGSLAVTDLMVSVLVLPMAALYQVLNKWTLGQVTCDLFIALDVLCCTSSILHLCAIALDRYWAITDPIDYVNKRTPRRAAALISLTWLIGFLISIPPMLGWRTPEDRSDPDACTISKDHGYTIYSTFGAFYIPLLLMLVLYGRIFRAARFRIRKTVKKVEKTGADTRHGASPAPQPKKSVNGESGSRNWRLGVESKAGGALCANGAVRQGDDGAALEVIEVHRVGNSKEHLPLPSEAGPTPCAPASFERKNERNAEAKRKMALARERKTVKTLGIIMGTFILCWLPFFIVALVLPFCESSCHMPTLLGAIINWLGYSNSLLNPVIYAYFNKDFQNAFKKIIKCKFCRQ
Briefly: 5-HT1A functional assay (Gi/o-mediated cAMP inhibition). It is filed as cell-based. The procedure:
(§1) Serotonin and Opioid Receptor Functional Assays. Functional assay screens at 5-HT and opioid receptors were performed in parallel using the same compound dilutions and 384-well format high-throughput assay platforms. Assays assessed activity at all human isoforms of the receptors, except where noted for the mouse 5-HT2A receptor. Receptor constructs in pcDNA vectors were generated from the Presto-Tango GPCR library with minor modifications. All compounds were serially diluted in drug buffer (HBSS, 20 mM HEPES, pH 7.4 supplemented with 0.1% bovine serum albumin and 0.01% ascorbic acid) and dispensed into 384-well assay plates using a FLIPR^TETRA (Molecular Devices). Every plate included a positive control such as 5-HT (for all 5-HT receptors), DADLE (DOR), salvinorin A (KOR), and DAMGO (MOR). For measurements of 5-HT2A, 5-HT2B, and 5-HT2C Gq-mediated calcium flux function, HEK Flp-In 293 T-Rex stable cell lines (Invitrogen) were loaded with Fluo-4 dye for one hour, stimulated with compounds and read for baseline (0-10 seconds) and peak fold-over-basal fluorescence (5 minutes) at 25° C. on the FLIPR^TETRA. For measurement of 5-HT6 and 5-HT7a functional assays, Gs-mediated cAMP accumulation was detected using the split-luciferase GloSensor assay in HEKT cells measuring luminescence on a Microbeta Trilux (Perkin Elmer) with a 15 min drug incubation at 25° C. […]

For another data set, the target named is mouse 5-HT2A receptors (Mus musculus, UniProt P35363). Briefly: 5-HT2A Gq-mediated calcium flux functional assay (mouse). It is filed as cell-based. The procedure: as §1
The next data set concerns the target 5-HT2B receptors (Homo sapiens, UniProt P41595). Briefly: 5-HT2B Gq-mediated calcium flux functional assay. It counts as cell-based. On the procedure:
Serotonin and Opioid Receptor Functional Assays. Functional assay screens at 5-HT and opioid receptors were performed in parallel using the same compound dilutions and 384-well format high-throughput assay platforms. Assays assessed activity at all human isoforms of the receptors, except where noted for the mouse 5-HT2A receptor. Receptor constructs in pcDNA vectors were generated from the Presto-Tango GPCR library with minor modifications. All compounds were serially diluted in drug buffer (HBSS, 20 mM HEPES, pH 7.4 supplemented with 0.1% bovine serum albumin and 0.01% ascorbic acid) and dispensed into 384-well assay plates using a FLIPR^TETRA (Molecular Devices). Every plate included a positive control such as 5-HT (for all 5-HT receptors), DADLE (DOR), salvinorin A (KOR), and DAMGO (MOR). For measurements of 5-HT2A, 5-HT2B, and 5-HT2C Gq-mediated calcium flux function, HEK Flp-In 293 T-Rex stable cell lines (Invitrogen) were loaded with Fluo-4 dye for one hour, stimulated with compounds and read for baseline (0-10 seconds) and peak fold-over-basal fluorescence (5 minutes) at 25° C. on the FLIPR^TETRA. For measurement of 5-HT6 and 5-HT7a functional assays, Gs-mediated cAMP accumulation was detected using the split-luciferase GloSensor assay in HEKT cells measuring luminescence on a Microbeta Trilux (Perkin Elmer) with a 15 min drug incubation at 25° C. For 5-HT1A, 5-HT1B, 5-HT1F, MOR, KOR, and DOR functional assays, Gi/o-mediated cAMP inhibition was measured using the split-luciferase GloSensor assay in HEKT cells, conducted similarly as above, but in combination with either 0.3 μM isoproterenol (5-HT1A, 5-HT1B, 5-HT1F) or 1 μM forskolin (MOR, KOR, and DOR) to stimulate endogenous cAMP accumulation. For measurement of 5-HT1D, 5-HT1E, 5-HT4, and 5-HT5A functional assays, β-arrestin2 recruitment was measured by the Tango assay utilizing HTLA cells expressing TEV fused-β-arrestin2, as described previously with minor modifications. […]

A further data set concerns larval zebrafish. Briefly: Heart rate and arrhythmia in immobilized larval zebrafish.
Data set [2] has as its system rat embryonic cortical neurons (DIV20). Briefly: Spinogenesis in mature cortical cultures (DIV20). It counts as cell-based. The note with it: DIV20, treatment for 24 h. On the procedure:
Spinogenesis Experiments. Spinogenesis experiments were performed as previously described with the exception that cells were treated on DIV19 and fixed 24 h after treatment on DIV20. (Ly, C. et al., 2018) The images were taken on a Nikon HCA Confocal microscope a with a 100×/NA 1.45 oil objective. DMSO and ketamine (10 μM) were used as vehicle and positive controls, respectively.

Data set [3] has as its system larval zebrafish expressing GCaMP5. The data set can be described thus: Seizurogenic potential in larval zebrafish expressing GCaMP5. It counts as in vivo. The note with it: 200 μM; PTZ positive control. On the procedure:
Transgenic larval zebrafish expressing GCaMP5G were immobilized in agarose, treated with compounds, and imaged over time. The known seizure-inducing compound PTZ was used as a positive control. All compounds were treated at 200 μM (n=2 per condition).

The subject of a further data set is zebrafish. The data set can be described thus: Zebrafish developmental toxicity assay. It is filed as in vivo.
The next data set concerns C57BL/6J mice. Briefly: Head-twitch response (HTR) assay. The settings on record: intraperitoneal; fumarate salts; 5-MeO-DMT 10 mg/kg as positive control.

Sequence of 5-HT2B receptors (P41595 whole entry, canonical isoform): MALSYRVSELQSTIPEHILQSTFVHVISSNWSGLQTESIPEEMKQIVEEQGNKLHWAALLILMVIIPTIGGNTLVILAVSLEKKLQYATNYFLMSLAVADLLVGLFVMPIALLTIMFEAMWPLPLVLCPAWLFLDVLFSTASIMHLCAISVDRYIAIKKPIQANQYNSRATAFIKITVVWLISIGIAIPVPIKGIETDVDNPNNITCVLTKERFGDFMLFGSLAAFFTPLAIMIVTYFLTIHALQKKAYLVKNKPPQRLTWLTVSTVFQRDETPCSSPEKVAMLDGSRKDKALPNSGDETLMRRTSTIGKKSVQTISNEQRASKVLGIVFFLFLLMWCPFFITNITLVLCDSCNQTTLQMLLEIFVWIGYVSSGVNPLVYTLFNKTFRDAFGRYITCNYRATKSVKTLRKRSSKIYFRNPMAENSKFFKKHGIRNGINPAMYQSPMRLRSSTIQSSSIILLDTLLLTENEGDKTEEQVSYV
Sequence of mouse 5-HT2A receptors (P35363 whole entry): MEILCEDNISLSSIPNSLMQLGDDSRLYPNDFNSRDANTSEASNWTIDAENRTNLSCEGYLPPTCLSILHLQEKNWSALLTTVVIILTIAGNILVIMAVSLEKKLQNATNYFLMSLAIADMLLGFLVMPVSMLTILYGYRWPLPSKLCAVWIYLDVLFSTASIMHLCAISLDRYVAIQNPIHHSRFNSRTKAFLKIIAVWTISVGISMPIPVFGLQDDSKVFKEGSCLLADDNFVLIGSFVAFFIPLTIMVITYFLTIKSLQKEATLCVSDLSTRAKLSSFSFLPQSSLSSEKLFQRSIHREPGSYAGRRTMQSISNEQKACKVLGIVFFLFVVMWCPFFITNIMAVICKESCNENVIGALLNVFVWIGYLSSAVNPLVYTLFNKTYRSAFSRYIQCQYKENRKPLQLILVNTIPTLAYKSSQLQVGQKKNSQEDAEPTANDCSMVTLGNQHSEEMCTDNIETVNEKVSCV

Turning to `COc1ccc2c3c([nH]c2c1)CCN(C)CC3` [TBG], in data set [1], the spine elimination result is reported as “no effect on spine elimination; also recorded: Neither TBG nor DOI affected spine elimination” and the spine formation result is on record as “increased spine formation”. Further, the “5-HT1A agonist activity compared to 5-MeO-DMT” value on 5-HT1A is “weaker 5-HT1A and 5-HT2C agonist activity”. At mouse 5-HT2A receptors, the “agonist activity at mouse 5-HT2A receptors” value was “potent agonist activity”. For the same compound, the “activity mode at 5-HT2B receptors” value on 5-HT2B receptors was “antagonists”. In the data set on larval zebrafish, the “heart rate (bradycardia)” value was “Neither IBG nor TBG induced these undesirable phenotypes; also recorded: do not induce bradycardia” and the “likelihood of arrhythmias (ratio of atrium to ventricle BPM)” value is recorded as “Neither IBG nor TBG induced these undesirable phenotypes”. Besides, in [2], the dendritic spine density entry is “increases dendritic spine density to a comparable extent as ibogaine”. The “seizure induction (neural activity)” value in [3] is listed as “Neither ibogaine nor TBG produced excessive neural activity; also recorded: does not induce seizures”. Further, the “proportion of viable to non-viable fish” value in the data set on zebrafish (66 μM, 5 dpf) is reported as “statistically indistinguishable from vehicle control; also recorded: does not cause developmental toxicity”. The “malformations, mortality, non-viable fish” value with zebrafish (100 μM, 2 and 5 dpf) is on record as “significantly fewer non-viable fish than ibogaine or noribogaine treatments”. Further, in the data set with C57BL/6J mice, the “hallucinogenic potential (head-twitch response)” value is recorded as “did not display hallucinogenic potential”.
